According to US7960397B2, “6,9-disubstituted purine derivatives and their use as cosmetics and cosmetic compositions” (Institute of Experimental Botany, Academy of Sciences of …, priority 2007, dated 2011):

Columns and labels:
[1] = test system: Amaranthus caudatus cotyledon/hypocotyl explants; experiment: Amaranthus bioassay (betacyanin content); set-up: species or system Amaranthus caudatus var. atropurpurea; settings: for concentration with highest activity: betacyanin content after 48 h incubation, tested 10^−8 M to 10^−4 M; for Activity (%) [10^−5 mol · l^−1 BAP = 100%]: betacyanin content at the concentration with highest activity, 10^−5 M BAP = 100%
Method: Testing of novel compounds for typical cytokinin activity in Amaranthus bioassay. A standard Amaranthus bioassay was performed with several modifications. The seeds of Amaranthus caudatus var. atropurpurea were surface-sterilized in 10% (w/v) N-chlorobenzenesulfonamide for 10 min and washed 5 times with deionized water. They were placed in 14 cm Petri dishes containing paper tissues saturated with deionized water. After 72 h of cultivation at 25° C. in darkness, the roots of the seedlings were cut off. The explants, consisting of two cotyledons and hypocotyls, were placed in 5 cm Petri dishes onto two layers of filter paper soaked with 1 ml of the incubation medium containing 10 mmol of NA2HPO4—KH2PO4, pH 6.8, 5 mmol of tyrosine and the compound to be tested. There were 20 explants per dish. The procedure was carried out under a green safe light in a darkroom. […] The concentration of betacyanin was determined from the absorbencies at 537 nm and 620 nm as follows: DA=A537 nm−A620 nm. […] Relative activity of the compound at this concentration was calculated. The activity obtained for 10^−5 M 6-benzylaminopurine (BAP) was defined as 100%.
(§1) The compounds to be tested were dissolved in dimethylsulfoxide (DMSO) and the solution brought up to 10^−3 M with distilled water.

[2] = test system: excised wheat leaf tips; experiment: Antisenescence test, retention of chlorophyll in excised wheat leaf tips; set-up: species or system Triticum aestivum cv. Hereward; settings: for activity (%) [10^−4 mol · l^−1 BAP = 100%]: retention of chlorophyll in excised wheat leaf tips at the concentration with highest activity, 10 replicate determinations; for concentration with highest activity: retention of chlorophyll in excised wheat leaf tips, tested range 10^−8 M to 10^−4 M, 96 h in the dark at 25° C.
Method: Testing of antisenescence properties of novel cytokinin compounds on wheat leaf segments. Seeds of winter wheat, Triticum aestivum cv. Hereward, were washed under running water for 24 hours and then sown on vermiculite soaked with the Knop's solution. They were placed in the grow chamber at 25° C. with a 16 h-8 h light period at 50 mmol.m^−2.s^−1. After 7 days, the first leaf was fully developed and the second leaf had started to grow. A 35 mm long tip section of the first leaf, was removed from each of 5 seedlings and trimmed slightly to a combined weight of 100 mg. The basal ends of the five leaf tips were placed in the wells of a microtiter polystyrene plate containing […] of the solution of the tested compound each. The entire plate was inserted into a plastic box lined with paper tissues soaked with distilled water to prevent leaf sections from drying out. After 96 h incubation in the dark at 25° C., the leaves were removed and chlorophyll was extracted by heating at 80° C. for 10 min in 5 ml of 80% ethanol (v/v). The sample volume was then restored to 5 ml by the addition of 80% ethanol (v/v). The absorbance of the extract was recorded at 665 nm. In addition, chlorophyll extracts from fresh leaves and leaf tips incubated in deionized water were measured. […] Relative activity of the compound at this concentration was calculated (Table 7). The activity obtained for 10^−4 M 6-benzylaminopurine (BAP) was defined as 100%. The values shown are means of five replicates and the whole experiment was repeated twice.
as §1

[3] = test system: cytokinin-dependent tobacco callus Nicotiana tabacum L. cv. Wisconsin 38; experiment: Cytokinin activity in tobacco callus bioassay; format: cell-based; settings: for concentration with highest activity: growth of tobacco callus, four weeks of cultivation, tested 10^−8 M to 10^−4 M; for Activity (%) [10^−5 mol · l^−1 BAP = 100%]: increase of fresh callus weight at the concentration with highest activity, 10^−5 M BAP = 100%
Method: Estimation of cytokinin biological activity of novel compounds in callus bioassay. Cytokinin-dependent tobacco callus Nicotiana tabacum L. cv. […] Subcultivation was carried out every three weeks. Fourteen days before the bioassay, the callus tissue was transferred to the media without the compound tested. The biological activity was determined from the increase of the fresh callus weight after four weeks of cultivation. Five replicates were prepared for each concentration of the compound tested and the entire test was repeated twice. […] The relative activity of the compound at this concentration was calculated (Table 8). […] The compounds to be tested were dissolved in dimethylsulfoxide (DMSO) and the solution brought up to 10^−3 M with distilled water. This stock solution was further diluted with the respective media used for the biotest to a concentration ranging from 10^−8 M to 10^−4 M.

SMILES	concentration with highest activity [1]	Activity (%) [10^−5 mol · l^−1 BAP = 100%] [1] [%]	activity (%) [10^−4 mol · l^−1 BAP = 100%] [2] [%]	concentration with highest activity [2]	concentration with highest activity [3]	Activity (%) [10^−5 mol · l^−1 BAP = 100%] [3] [%]
COc1ccc(CNc2ncnc3c2ncn3C2CCCO2)cc1O (stereo not drawn)	10^−4 mol · l^−1	32	35	10^−4 mol · l^−1	10^−6 mol · l^−1	47
COc1cccc(CNc2ncnc3[nH]cnc23)c1O [2-hydroxy-3-methoxybenzylamino / H, reference compound]	10^−4 mol · l^−1	19	34	10^−4 mol · l^−1		
Oc1ccc(Nc2ncnc3c2ncn3C2CCCO2)cc1 (stereo not drawn) [4-hydroxyanilino / tetrahydrofuran-2-yl]	10^−4 mol · l^−1	22	28	10^−4 mol · l^−1	10^−5 mol · l^−1	10
CCOC(C)n1cnc2c(NCc3cccc(O)c3)ncnc21 (stereo not drawn) [3-hydroxybenzylamino / 1-ethoxyethyl]	10^−4 mol · l^−1	108.2	108.2	10^−4 mol · l^−1	10^−4 mol · l^−1	109.4
COc1cc(O)cc(OC)c1CNc1ncnc2c1ncn2C1CCCO1 (stereo not drawn)	10^−4 mol · l^−1	7	14	10^−4 mol · l^−1	10^−5 mol · l^−1	31
Cc1cc(CNc2ncnc3c2ncn3C2CCCO2)ccc1O (stereo not drawn) [4-hydroxy-5-methylbenzylamino / tetrahydrofuran-2-yl]	10^−4 mol · l^−1	22	17	10^−4 mol · l^−1	10^−5 mol · l^−1	2
COc1cccc(CNc2ncnc3c2ncn3CCCCCl)c1O	10^−4 mol · l^−1	53				
Oc1cccc(CNc2ncnc3c2ncn3CCCCCl)c1 [3-hydroxybenzylamino / 4-chlorobutyl]	10^−4 mol · l^−1	102.5	102.5	10^−4 mol · l^−1	10^−4 mol · l^−1	111.6
COc1cc(CNc2ncnc3c2ncn3C2CCCO2)cc(OC)c1O (stereo not drawn)	10^−4 mol · l^−1	2	36	10^−4 mol · l^−1	10^−5 mol · l^−1	27
Oc1ccc(CNc2ncnc3c2ncn3C2CCCCO2)c(O)c1 (stereo not drawn)					10^−5 mol · l^−1	5
Oc1cc(O)cc(CNc2ncnc3[nH]cnc23)c1 [3,5-dihydroxybenzylamino / H, reference compound]	10^−5 mol · l^−1	53	134	10^−4 mol · l^−1	10^−6 mol · l^−1	39
CCOC(C)n1cnc2c(NCCC(C)CO)ncnc21 (stereo not drawn)	10^−4 mol · l^−1	85	94	10^−4 mol · l^−1	10^−4 mol · l^−1	95
Cc1cc(Nc2ncnc3c2ncn3C2CCCO2)ccc1O (stereo not drawn)	10^−4 mol · l^−1	6	4	10^−4 mol · l^−1	10^−5 mol · l^−1	7
CC(CO)CCNc1ncnc2[nH]cnc12 (stereo not drawn) [4-hydroxy-3-methylbutylamino / H, reference compound]	10^−4 mol · l^−1	75	89	10^−4 mol · l^−1	10^−5 mol · l^−1	83.2
Oc1cc(O)cc(CNc2ncnc3c2ncn3C2CCCCO2)c1 (stereo not drawn)	10^−5 mol · l^−1	53	145	10^−4 mol · l^−1	10^−6 mol · l^−1	45
CC(CO)CCNc1ncnc2c1ncn2CCCCCl (stereo not drawn)	10^−4 mol · l^−1	81	89	10^−4 mol · l^−1	10^−4 mol · l^−1	84
Oc1ccc(O)c(CNc2ncnc3c2ncn3C2CCCCO2)c1 (stereo not drawn)	10^−4 mol · l^−1	35.1	15	10^−4 mol · l^−1	10^−5 mol · l^−1	20
Oc1ccccc1CNc1ncnc2c1ncn2CCCCCl [2-hydroxybenzylamino / 4-chlorobutyl]	10^−4 mol · l^−1	47.5	47.5	10^−4 mol · l^−1		
